# According to ChEMBL document CHEMBL5500354, “Novel selective agents for the degradation of AR/AR-V7 to treat advanced prostate cancer” (Eur J Med Chem, 2024):
# How the values were obtained:
# LNCaP [1] = experiment: cells; conditions: Homo sapiens, 24 h, read-out: INH
# Description: Antiproliferative activity against human LNCaP cells assessed as inhibition rate at 10 uM incubated for 24 hrs by CCK8 assay relative to control
# CWR22R [2] = experiment: cells; conditions: Homo sapiens, 22Rv1, 24 h, read-out: INH
# Description: Antiproliferative activity against human 22Rv1 cells assessed as inhibition rate at 10 uM incubated for 24 hrs by CCK8 assay relative to control
# Androgen receptor [3] = target: T1, Androgen receptor (Homo sapiens, UniProt P10275); experiment: Binding affinity to human androgen receptor transfected in HEK293 cell membrane co-transfected with ARC1 assessed as inhibition of [3H]-methyltrienolone binding to receptor incubated for 30 mins by competitive ligand binding assay
# T1 sequence (P10275 whole entry): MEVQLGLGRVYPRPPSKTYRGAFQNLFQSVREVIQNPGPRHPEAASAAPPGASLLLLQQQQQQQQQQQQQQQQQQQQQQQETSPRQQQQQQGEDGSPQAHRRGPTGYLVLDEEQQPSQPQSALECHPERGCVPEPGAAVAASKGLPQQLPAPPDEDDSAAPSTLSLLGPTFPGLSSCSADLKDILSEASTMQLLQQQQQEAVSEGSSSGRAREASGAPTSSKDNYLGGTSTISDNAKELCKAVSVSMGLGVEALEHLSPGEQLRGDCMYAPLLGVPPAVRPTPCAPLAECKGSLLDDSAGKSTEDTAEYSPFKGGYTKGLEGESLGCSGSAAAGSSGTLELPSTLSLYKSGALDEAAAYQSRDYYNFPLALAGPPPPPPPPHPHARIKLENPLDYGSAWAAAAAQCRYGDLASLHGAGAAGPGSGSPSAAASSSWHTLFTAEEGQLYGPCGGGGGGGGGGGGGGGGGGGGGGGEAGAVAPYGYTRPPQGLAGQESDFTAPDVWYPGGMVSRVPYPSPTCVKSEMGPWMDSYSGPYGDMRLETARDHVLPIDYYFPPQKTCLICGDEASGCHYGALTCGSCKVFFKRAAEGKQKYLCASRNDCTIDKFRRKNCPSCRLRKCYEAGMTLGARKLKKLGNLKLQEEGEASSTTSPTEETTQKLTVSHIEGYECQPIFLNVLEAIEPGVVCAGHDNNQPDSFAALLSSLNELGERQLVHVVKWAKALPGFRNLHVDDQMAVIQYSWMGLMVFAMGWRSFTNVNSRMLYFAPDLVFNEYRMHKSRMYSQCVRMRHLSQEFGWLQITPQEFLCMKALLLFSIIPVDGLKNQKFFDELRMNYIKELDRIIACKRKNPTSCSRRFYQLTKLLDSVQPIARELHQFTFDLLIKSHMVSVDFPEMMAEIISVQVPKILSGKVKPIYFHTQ
# Androgen receptor [4] = target: T1, Androgen receptor
# Description: Antagonist activity at androgen receptor (unknown origin) transfected in HEK293T cells co-transfected with luciferase reporter gene assessed as inhibition of transcriptional activity incubated for 18 to 20 hrs by luminescence plate reader analysis
# Androgen receptor [5] = target: T2, Androgen receptor (Rattus norvegicus, UniProt P15207); experiment: Binding affinity to GST/His-tagged recombinant rat androgen receptor (606 to 902 residues) ligand binding domain expressed in baculovirus expression system assessed as dissociation constant by Biolayer interferometric analysis
# T2 sequence (P15207 whole entry): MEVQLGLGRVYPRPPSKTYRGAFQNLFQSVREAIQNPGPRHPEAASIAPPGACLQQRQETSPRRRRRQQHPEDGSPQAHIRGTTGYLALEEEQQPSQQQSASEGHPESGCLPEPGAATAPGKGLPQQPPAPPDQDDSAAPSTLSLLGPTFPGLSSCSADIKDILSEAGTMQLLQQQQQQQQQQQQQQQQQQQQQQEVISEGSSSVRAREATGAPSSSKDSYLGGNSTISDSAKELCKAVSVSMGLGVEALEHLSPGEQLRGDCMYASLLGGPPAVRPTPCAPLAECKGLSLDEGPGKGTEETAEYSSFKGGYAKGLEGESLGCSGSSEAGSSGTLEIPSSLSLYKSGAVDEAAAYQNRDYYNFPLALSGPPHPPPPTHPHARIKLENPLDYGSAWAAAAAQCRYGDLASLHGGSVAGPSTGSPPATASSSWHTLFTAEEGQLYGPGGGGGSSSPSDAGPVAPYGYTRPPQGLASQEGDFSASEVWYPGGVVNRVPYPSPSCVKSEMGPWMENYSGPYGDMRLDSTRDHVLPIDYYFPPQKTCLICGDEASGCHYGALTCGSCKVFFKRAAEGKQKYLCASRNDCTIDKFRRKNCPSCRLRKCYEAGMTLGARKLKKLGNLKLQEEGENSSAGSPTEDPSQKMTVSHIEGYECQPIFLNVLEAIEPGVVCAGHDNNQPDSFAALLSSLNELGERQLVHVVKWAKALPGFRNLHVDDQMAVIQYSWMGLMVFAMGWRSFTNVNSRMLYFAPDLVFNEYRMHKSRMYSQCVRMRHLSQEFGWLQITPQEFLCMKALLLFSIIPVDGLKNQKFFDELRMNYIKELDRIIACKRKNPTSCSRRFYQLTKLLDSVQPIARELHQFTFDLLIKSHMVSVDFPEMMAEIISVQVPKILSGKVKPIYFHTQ
# LNCaP [6] = experiment: Antiproliferative activity against human LNCaP cells assessed as reduction in cell viability incubated for 24 hrs by CCK8 assay
# CWR22R [7] = experiment: Antiproliferative activity against human 22Rv1 cells assessed as reduction in cell viability incubated for 24 hrs by CCK8 assay; conditions: 22Rv1, 24 h
SMILES,inhibition at 10 µM (LNCaP [1]) [%],inhibition at 10 µM (CWR22R [2]) [%],IC50 (Androgen receptor [3]) [nM],IC50 (Androgen receptor [4]) [nM],Kd (Androgen receptor [5]) [nM],IC50 (LNCaP [6]) [µM],IC50 (CWR22R [7]) [µM]
N#Cc1ccc(O[C@H]2CC[C@H](NC(=O)c3ccc(N4CCC(CN5CCN(c6ccc(/C=C/C(=O)O)cc6)CC5)CC4)nn3)CC2)cc1Cl,36,< 10,,,,,
CCCNc1ccc(CC2CCN(c3ccc(C(=O)N[C@H]4CC[C@H](Oc5ccc(C#N)c(Cl)c5)CC4)nn3)CC2)cc1,< 10,< 10,,,,,
N#Cc1ccc(O[C@H]2CC[C@H](NC(=O)c3ccc(N4CCC(CN5CCN(C6CN(CCCF)C6)CC5)CC4)nn3)CC2)cc1Cl,17,29,,,,,
N#Cc1ccc(O[C@H]2CC[C@H](NC(=O)c3ccc(-c4ccc(NCCCCCF)cc4)nn3)CC2)cc1Cl,< 10,< 10,,,,,
N#Cc1ccc(O[C@H]2CC[C@H](NC(=O)c3cccnn3)CC2)cc1Cl,< 10,< 10,1.52,60.8,,,
N#Cc1ccc(O[C@H]2CC[C@H](NC(=O)c3ccc(N4CCC(CNC5CN(CCCF)C5)CC4)nn3)CC2)cc1Cl,10,< 10,5.41,> 10000,,,
N#Cc1ccc(O[C@H]2CC[C@H](NC(=O)c3ccc(N4CCC(Cc5ccc(NC6CN(CCCF)C6)cc5)CC4)nn3)CC2)cc1Cl,,,,,590,,
N#Cc1ccc(O[C@H]2CC[C@H](NC(=O)c3ccc(N4CCC(Cc5ccc(NCCCF)cc5)CC4)nn3)CC2)cc1Cl,< 10,< 10,,,,,
N#Cc1ccc(O[C@H]2CC[C@H](NC(=O)c3ccc(N4CCC(CC5CN(CCCF)C5)CC4)nn3)CC2)cc1Cl,21,< 10,3.67,,,,
N#Cc1ccc(O[C@H]2CC[C@H](NC(=O)c3ccc(-c4ccc(NC5CN(CCCF)C5)cc4)nn3)CC2)cc1Cl,13,28,,,,,
N#Cc1ccc(O[C@H]2CC[C@H](NC(=O)c3ccc(N4CCC(CN5CCN(CCCC(F)(F)C(F)(F)F)CC5)CC4)nn3)CC2)cc1Cl,< 10,< 10,12.4,> 10000,,,
N#Cc1ccc(O[C@H]2CC[C@H](NC(=O)c3ccc(N4CCC(CN5CCN(c6ccc(NC7CN(CCCF)C7)cc6)CC5)CC4)nn3)CC2)cc1Cl,> 50,> 50,6.81,394,,6.86,5.12
N#Cc1ccc(O[C@H]2CC[C@H](NC(=O)c3ccc(N4CCC(N5CC(CF)C5)CC4)nn3)CC2)cc1Cl,15,< 10,,,,,
N#Cc1ccc(O[C@H]2CC[C@H](NC(=O)c3ccc(N4CCC(CN5CCN(CC[S+]([O-])CCCC(F)(F)C(F)(F)F)CC5)CC4)nn3)CC2)cc1Cl (stereo partly drawn),13,< 10,,,,,
